Measured values published in patent US5733924A, “DC 107 derivatives and treatment methods” (Kyowa Hakko Kogyo Co., Ltd., priority 1995, dated 1998).
Converted amounts (≈) assume the structure as drawn. Where two headings read alike, the source gives them in different places.

What was measured:
[1] = test system: Enterococcus faecium ATCC 10541; experiment: Antibacterial activity, agar dilution method (MIC); type: cell-based
Description: (§1) The antibacterial activity as determined by the agar dilution method using a medium prepared by dissolving 3 g of Bacto-Tryptone (a product of Difco Laboratories), 3 g of a meat extract, 1 g of an yeast extract, 1 g of glucose and 16 g of agar in one liter of water (pH 7).
EF: Enterococcus faecium ATCC 10541

[2] = test system: Staphylococcus aureus ATCC 6538P; experiment: Antibacterial activity, agar dilution method (MIC); type: cell-based; settings: for MIC: ATCC6538P
Description: as §1
SA: Staphylococcus aureus ATCC 6538P

[3] = test system: Bacillus subtilis No. 10707; experiment: Antibacterial activity, agar dilution method (MIC); type: cell-based
Description: as §1
BS: Bacillus subtilis No. 10707

[4] = test system: Klebsiella pneumoniae ATCC 10031; experiment: Antibacterial activity, agar dilution method (MIC); type: cell-based
Description: as §1
KP: Klebsiella pneumoniae ATCC 10031

[5] = test system: Escherichia coli ATCC 26; experiment: Antibacterial activity, agar dilution method (MIC); type: cell-based
Description: as §1
EC: Escherichia coli ATCC 26

[6] = test system: P388 Leukemia; experiment: Antitumor activity against P388 leukemia in mice (increased life span); type: in vivo, CDF1 mice; settings: Mus musculus, P388, ip, 720 h; for ILS at 4 mg/kg / ILS at 2 mg/kg: read-out: ILS (increased life span)
Experimental: Ascites were collected from the abdominal cavity of P388 ascites tumor-bearing cancer mice (DBA/2) on the 7th day after transplantation. A number of P388 cells in the ascites was counted, and a tumor cell floating liquid of 5×10^6 cells/ml was prepared using a physiological saline solution. Then, 0.2 ml of the solution containing 1×10^6 cells was transplanted into the abdominal cavity of CDF1 mice having a body weight of from 20 to 25 g.
The effect of the test compound was determined in terms of the ratio of average survival days of the group administered with the test compound to average survival days of the control group (non-medicated group) (i.e., an increased life span, ILS%).

[7] = Enterococcus faecium, ATCC10541, pH 7, read-out: MIC (minimum growth inhibitory concentration), EF: Enterococcus faecium ATCC 10541
[8] = Staphylococcus aureus, pH 7, read-out: MIC (minimum growth inhibitory concentration)
[9] = Bacillus subtilis, NO.10707, pH 7, read-out: MIC (minimum growth inhibitory concentration), BS: Bacillus subtilis No. 10707
[10] = Klebsiella pneumoniae, ATCC10031, pH 7, read-out: MIC (minimum growth inhibitory concentration)
[11] = ATCC10541, EF: Enterococcus faecium ATCC 10541, pH 7, read-out: MIC (minimum growth inhibitory concentration)
[12] = SA: Staphylococcus aureus ATCC 6538P, agar dilution, pH 7, read-out: MIC (minimum growth inhibitory concentration)
[13] = ATCC26, EC: Escherichia coli ATCC 26, pH 7, read-out: MIC (minimum growth inhibitory concentration)
[14] = BS: Bacillus subtilis No. 10707, pH 7, read-out: MIC (minimum growth inhibitory concentration)
[15] = ATCC10031, KP: Klebsiella pneumoniae ATCC 10031, agar dilution, pH 7, read-out: MIC (minimum growth inhibitory concentration)
[16] = Escherichia coli, ATCC26, pH 7, read-out: MIC (minimum growth inhibitory concentration), EC: Escherichia coli ATCC 26
[17] = single i.p. 24 hours after transplantation, CDF1 mice, 30 days observation
[18] = 4.0 mg/kg, single i.p. 24 hours after transplantation, CDF1 mice, 30 days observation

C/C1=C\C(O)C(=O)/C=C/C=C\c2csc(n2)C(C)N2C(=O)CC(C(C)(O)C(=O)SCOC(=O)C3CCC3)(CC1)[S+]2[O-] (stereo not shown) [Compound 78] gave an MIC [1, 7] of 9.4 mg/L (≈ 15.1 µM), an MIC [2, 8] of 4.7 mg/L (≈ 7.55 µM) and an MIC [3, 9] of 0.073 mg/L (≈ 0.117 µM). It also gave an MIC [4, 10] of 2.3 mg/L (≈ 3.69 µM).
Compound C/C1=C\C(OC(=O)c2ccc(F)cc2)C(=O)/C=C/C=C\c2csc(n2)C(C)NC(=O)CC2(CC1)[S+]([O-])SC(=O)C2(C)O (stereo not shown) [Compound 8] has an MIC [1, 11] of 0.081 mg/L (≈ 0.128 µM), an MIC [2, 12] of 0.081 mg/L (≈ 0.128 µM) and an MIC [5, 13] of 1.3 mg/L (≈ 2.05 µM). It also gave an MIC [3, 14] of 0.02 mg/L (≈ 0.0316 µM) and an MIC [4, 15] of 1.3 mg/L (≈ 2.05 µM).
For CCOC(C)OC1/C=C(\C)CCC2(C(C)(O)C(=O)SCc3oc(=O)oc3C)CC(=O)N(C(C)c3nc(cs3)/C=C\C=C\C1=O)[S+]2[O-] (stereo not shown) [Compound 87], the MIC [1, 11] was 54 mg/L (≈ 77.7 µM), the MIC [2, 12] was 0.85 mg/L (≈ 1.22 µM) and the MIC [5, 13] was 6.8 mg/L (≈ 9.79 µM). The MIC [3, 14] was 0.11 mg/L (≈ 0.158 µM) and the MIC [4, 15] was 1.7 mg/L (≈ 2.45 µM).
Work on COC1(OC2C=C(C)CCC3(C(C)(O)C(=O)SCc4oc(=O)oc4C)CC(=O)N(C(C)c4nc(cs4)C=CC=CC2=O)[S+]3[O-])CCSCC1 (stereo not shown) [Compound 127] yielded an ILS at 16 mg/kg ([6]; 16 mg/kg, single i.p. 24 hours after transplantation, CDF1 mice, 30 days observation) of 52%, an MIC [1, 11] of 0.65 mg/L (≈ 0.863 µM) and an MIC [2, 12] of 0.65 mg/L (≈ 0.863 µM). It also gave an MIC [3, 14] of 0.041 mg/L (≈ 0.0545 µM) and an MIC [4, 15] of 2.6 mg/L (≈ 3.45 µM).
With CC1=CC(OC(=O)CNC(=O)CN(C)C(=O)OCc2ccccc2)C(=O)C=CC=Cc2csc(n2)C(C)N2C(=O)CC(C(C)(O)C(=O)SCc3oc(=O)oc3C)(CC1)[S+]2[O-] (stereo not shown) [Compound 172] the ILS at 4 mg/kg [6] was 65%, the MIC [1, 7] was 1 mg/L (≈ 1.13 µM) and the MIC [2, 8] was 2.1 mg/L (≈ 2.37 µM). The MIC [3, 9] was 1 mg/L (≈ 1.13 µM) and the MIC [4, 10] was 1 mg/L (≈ 1.13 µM).
In the case of C/C1=C\C(OC2CCCCO2)C(=O)/C=C/C=C\c2csc(n2)C(C)N2C(=O)CC(C(C)(O)C(=O)SCc3oc(=O)oc3C)(CC1)[S+]2[O-] (single isomer, unassigned) [Compound 64], the “MIC (minimum growth inhibitory concentration)” value ([1]; EF: Enterococcus faecium ATCC 10541, pH 7) is reported as 1.3 mg/L (≈ 1.84 µM), the “MIC (minimum growth inhibitory concentration)” value ([2]; SA: Staphylococcus aureus ATCC 6538P, agar dilution, pH 7) is reported as 0.65 mg/L (≈ 0.92 µM) and the “MIC (minimum growth inhibitory concentration)” value ([5]; EC: Escherichia coli ATCC 26, pH 7) is reported as 5.2 mg/L (≈ 7.36 µM). For the same compound, the “MIC (minimum growth inhibitory concentration)” value ([3]; BS: Bacillus subtilis No. 10707, pH 7) was 0.16 mg/L (≈ 0.226 µM) and the “MIC (minimum growth inhibitory concentration)” value ([4]; KP: Klebsiella pneumoniae ATCC 10031, agar dilution, pH 7) was 5.2 mg/L (≈ 7.36 µM).
In the case of CC(=O)OC1/C=C(\C)CCC2(CC(=O)NC(C)c3nc(cs3)/C=C\C=C\C1=O)[S+]([O-])SC(=O)C2(C)O (stereo not shown) [Compound 1], the MIC [1, 11] is reported as 0.52 mg/L (≈ 0.941 µM), the MIC [2, 12] is reported as 0.52 mg/L (≈ 0.941 µM) and the MIC [3, 14] is reported as 0.26 mg/L (≈ 0.47 µM). It also gave an MIC [4, 15] of 17 mg/L (≈ 30.8 µM).
In the case of C/C1=C\C(OC(=O)c2cnc3ccccc3n2)C(=O)/C=C/C=C\c2csc(n2)C(C)N2C(=O)CC(C(C)(O)C(=O)SCc3oc(=O)oc3C)(CC1)[S+]2[O-] (stereo not shown) [Compound 52], the MIC [1, 7] is reported as 0.72 mg/L (≈ 0.924 µM), the MIC [2, 8] is reported as 0.72 mg/L (≈ 0.924 µM) and the MIC [5, 16] is reported as 92 mg/L (≈ 118 µM). For the same compound, the MIC [3, 9] was 2.9 mg/L (≈ 3.72 µM) and the MIC [4, 10] was 23 mg/L (≈ 29.5 µM).
Work on C/C1=C\C(OC(=O)CNC(=O)OC(C)(C)C)C(=O)/C=C/C=C\c2csc(n2)C(C)NC(=O)CC2(CC1)[S+]([O-])SC(=O)C2(C)O (stereo not shown) [Compound 96] yielded an ILS at 2 mg/kg [6, 17] of 46%.
CC1=CC(OC(=O)CNC(=O)[C@H](C)NC(=O)OCc2ccccc2)C(=O)C=CC=Cc2csc(n2)C(C)N2C(=O)CC(C(C)(O)C(=O)SCc3oc(=O)oc3C)(CC1)[S+]2[O-] (stereo partly shown) [Compound 168] showed an ILS at 4 mg/kg [6, 18] of 58%.
Work on C/C1=C\C(OC(=O)c2cnc3ccccc3n2)C(=O)/C=C/C=C\c2csc(n2)C(C)NC(=O)CC2(CC1)[S+]([O-])SC(=O)C2(C)O (stereo not shown) [Compound 9] yielded an ILS at 2 mg/kg [6, 17] of 44%.
C/C1=C\C(OC2CCCCO2)C(=O)/C=C/C=C\c2csc(n2)C(C)NC(=O)CC2(CC1)[S+]([O-])SC(=O)C2(C)O (stereo not shown) [Compound 18] was tested, and the MIC [1, 7] was 0.16 mg/L (≈ 0.269 µM), the MIC [2, 8] was 0.16 mg/L (≈ 0.269 µM) and the MIC [5, 16] was 1.3 mg/L (≈ 2.19 µM). For the same compound, the MIC [3, 9] was 0.041 mg/L (≈ 0.0689 µM) and the MIC [4, 10] was 2.6 mg/L (≈ 4.37 µM).
C/C1=C\C(O)C(=NOCc2ccccc2)/C=C/C=C\c2csc(n2)C(C)NC(=O)CC2(CC1)[S+]([O-])SC(=O)C2(C)O (stereo not shown) [Compound 69] gave an MIC [1, 11] of 0.028 mg/L (≈ 0.0455 µM), an MIC [2, 12] of 0.057 mg/L (≈ 0.0926 µM) and an MIC [5, 13] of 1.8 mg/L (≈ 2.92 µM). It also gave an MIC [3, 14] of 0.028 mg/L (≈ 0.0455 µM) and an MIC [4, 15] of 0.23 mg/L (≈ 0.373 µM).
Compound C/C1=C\C(OC(=O)CCNC(=O)OCc2ccccc2)C(=O)/C=C/C=C\c2csc(n2)C(C)NC(=O)CC2(CC1)[S+]([O-])SC(=O)C2(C)O (stereo not shown) [Compound 105] has an ILS at 4 mg/kg [6, 18] of 53%.
